Assay [1] deals with T1, Amine oxidase [flavin-containing] A (Homo sapiens, UniProt P21397).
T1 sequence (P21397 whole entry): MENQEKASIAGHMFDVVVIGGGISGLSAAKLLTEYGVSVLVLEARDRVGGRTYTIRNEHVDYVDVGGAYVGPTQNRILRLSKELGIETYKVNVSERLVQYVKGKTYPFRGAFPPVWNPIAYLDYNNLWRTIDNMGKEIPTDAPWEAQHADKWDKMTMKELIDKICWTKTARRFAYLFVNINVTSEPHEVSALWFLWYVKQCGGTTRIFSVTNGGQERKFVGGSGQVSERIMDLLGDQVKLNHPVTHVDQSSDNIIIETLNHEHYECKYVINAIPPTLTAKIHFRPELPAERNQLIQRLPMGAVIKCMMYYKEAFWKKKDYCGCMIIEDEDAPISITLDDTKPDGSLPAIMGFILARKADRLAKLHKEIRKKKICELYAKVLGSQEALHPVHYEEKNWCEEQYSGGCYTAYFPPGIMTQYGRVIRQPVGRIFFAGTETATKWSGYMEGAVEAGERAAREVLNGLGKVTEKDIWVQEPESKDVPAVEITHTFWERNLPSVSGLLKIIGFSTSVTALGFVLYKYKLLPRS
Put plainly: Inhibition of human recombinant MAO-A using kynuramine as substrate incubated for 20 mins by fluorescence spectrophotometric analysis.

In assay [2] the target is T2, Amine oxidase [flavin-containing] B (Homo sapiens, UniProt P27338).
T2 sequence (P27338 whole entry): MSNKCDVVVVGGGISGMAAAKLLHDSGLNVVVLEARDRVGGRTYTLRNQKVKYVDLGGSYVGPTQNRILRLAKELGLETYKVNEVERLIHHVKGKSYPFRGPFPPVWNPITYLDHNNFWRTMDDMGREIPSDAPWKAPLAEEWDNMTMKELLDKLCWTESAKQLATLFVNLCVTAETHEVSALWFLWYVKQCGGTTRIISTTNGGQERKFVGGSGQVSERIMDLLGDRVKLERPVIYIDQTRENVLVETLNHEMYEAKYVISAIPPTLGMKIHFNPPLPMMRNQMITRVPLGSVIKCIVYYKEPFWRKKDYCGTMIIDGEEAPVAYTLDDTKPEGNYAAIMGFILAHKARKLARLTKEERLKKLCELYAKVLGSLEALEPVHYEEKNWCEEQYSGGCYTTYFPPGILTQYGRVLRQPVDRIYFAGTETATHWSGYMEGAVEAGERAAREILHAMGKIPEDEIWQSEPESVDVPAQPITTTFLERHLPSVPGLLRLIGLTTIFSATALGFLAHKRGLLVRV
The assay is described as follows: Inhibition of human recombinant MAO-B using kynuramine as substrate incubated for 20 mins by fluorescence spectrophotometric analysis.

The species named for a further assay is Homo sapiens. Put plainly: Selectivity index, ratio of IC50 for human recombinant MAO-B to IC50 for human recombinant MAO-A.

Molecules are shown by their SMILES.

As to `O=C1NC(=O)c2cc3c(cc21)cc(-c1cccs1)n3O`, the IC50 was 6.35 µM in assay [1] and above 100 µM in assay [2]. In addition, the Ratio IC50 in the assay listed under Homo sapiens is above 16.

Take `Cc1ccc(C(=O)Cc2cc3c(cc2[N+](=O)[O-])C(=O)NC3=O)cc1`: the IC50 was 2.11 µM in assay [1] and 0.923 µM in assay [2]. The Ratio IC50 in the assay filed under Homo sapiens was 0.44.

For `COn1c(-c2ccc(C)cc2)c(CO)c2cc(C#N)c(C#N)cc21`, the IC50 in assay [1] was 5.12 µM; in assay [2], above 100 µM. In the assay listed under Homo sapiens, the Ratio IC50 is above 20.

For the molecule `O=C(Cc1cc2c(cc1[N+](=O)[O-])C(=O)NC2=O)c1cccs1`, the IC50 in assay [1] was 6.12 µM; in assay [2], above 100 µM. In the assay listed under Homo sapiens, the Ratio IC50 is above 16.

On to `Cc1ccc(-c2cc3cc4c(cc3n2O)C(=O)NC4=O)cc1`, for which the IC50 was 1.16 µM in assay [1] and 8.09 µM in assay [2]. Besides, in the assay listed under Homo sapiens, the Ratio IC50 came out at 7.

`O=C(Cc1cc2c(cc1[N+](=O)[O-])C(=O)N(Cc1ccccc1)C2=O)c1cccs1`: the IC50 in assay [1] and in assay [2] was above 100 µM in each case.

With `CC(=O)On1c(-c2cccs2)cc2cc(C#N)c(C#N)cc21`, the IC50 in assay [1] was found to be 2.08 µM; in assay [2] it was 1.94 µM. Besides, the Ratio IC50 in the assay filed under Homo sapiens stood at 0.93.

Turning to `O=C(Cc1cc(C(=O)O)c(C(=O)O)cc1[N+](=O)[O-])c1ccccc1`, the IC50 in assay [1] and in assay [2] was above 100 µM in each case.

As for `O=C1NC(=O)c2cc3c(cc21)cc(-c1ccccc1)n3O`, the values for the IC50 in assay [1] and in assay [2] were above 100 µM and 83.1 µM, respectively. In addition, the Ratio IC50 in the assay listed under Homo sapiens was below 0.83.

As for `Cc1ccc(C(=O)Cc2cc(C(=O)O)c(C(=O)O)cc2[N+](=O)[O-])cc1`, the IC50 in assay [1] and in assay [2] was above 100 µM each time.

Turning to `COn1c(-c2ccc(C)cc2)c(C=O)c2cc(C#N)c(C#N)cc21`, the results for the IC50 in assay [1] and in assay [2] were 0.405 µM and 74.8 µM, respectively. The Ratio IC50 in the assay filed under Homo sapiens came to 185.

For the molecule `Cc1ccc(-c2cc3cc(C#N)c(C#N)cc3n2O)cc1`, the IC50 in assay [1] was found to be 1.14 µM; in assay [2], 0.821 µM. Besides, in the assay listed under Homo sapiens, the Ratio IC50 was 0.72.

Take `COC(=O)c1cc2cc(-c3ccc(OC)cc3)n(OC)c2cc1C(=O)OC`: the IC50 in assay [1] was 19 µM; in assay [2], above 100 µM. Further, the Ratio IC50 in the assay listed under Homo sapiens is above 5.3.

Take `N#Cc1cc2cc(-c3ccccc3)n(O)c2cc1C#N`: the results for the IC50 in assay [1] and in assay [2] were 6.92 µM and 10.3 µM, respectively. Further, the Ratio IC50 in the assay filed under Homo sapiens came out at 1.5.

As to `COc1ccc(C(=O)Cc2cc3c(cc2[N+](=O)[O-])C(=O)NC3=O)cc1`, the IC50 is 0.661 µM in assay [1] and 1.21 µM in assay [2]. In the assay listed under Homo sapiens, the Ratio IC50 worked out at 1.8.

With `COc1ccc(-c2cc3cc(C(=O)O)c(C(=O)O)cc3n2O)cc1`, the IC50 in assay [1] and in assay [2] was above 100 µM throughout.

For the molecule `COc1ccc(-c2cc3cc(C#N)c(C#N)cc3n2O)cc1`, the IC50 in assay [1] was determined as 1.84 µM; in assay [2], 1.79 µM. Besides, in the assay listed under Homo sapiens, the Ratio IC50 is 0.97.

Turning to `COn1c(-c2cccs2)cc2cc3c(cc21)C(=O)NC3=O`, the results for the IC50 in assay [1] and in assay [2] were 6.7 µM and 3.75 µM, respectively. In addition, the Ratio IC50 in the assay listed under Homo sapiens is 0.56.

In the case of `COn1c(-c2ccc(C)cc2)c(Br)c2cc(C#N)c(C#N)cc21`, the IC50 in assay [1] was above 100 µM; in assay [2], 7.46 µM. Moreover, the Ratio IC50 in the assay listed under Homo sapiens was below 0.075.

For `COn1c(-c2ccccc2)c(C=O)c2cc(C#N)c(C#N)cc21`, the results for the IC50 in assay [1] and in assay [2] were 0.522 µM and above 100 µM, respectively. Besides, the Ratio IC50 in the assay filed under Homo sapiens is above 192.

For `O=C(O)c1cc2cc(-c3cccs3)n(O)c2cc1C(=O)O`, the half-inhibitory concentration (IC50) in assay [1] and in assay [2] was above 100 µM each time.

Take `O=C1NC(=O)c2cc3c(Cl)c(-c4ccccc4)[nH]c3cc21`: the IC50 in assay [1] is 0.25 µM; in assay [2], above 100 µM. The Ratio IC50 in the assay listed under Homo sapiens is above 400.

`COn1c(-c2ccccc2)c(CO)c2cc(C#N)c(C#N)cc21`: the IC50 in assay [1] was 4.99 µM; in assay [2], above 100 µM. The Ratio IC50 in the assay listed under Homo sapiens is above 20.

As to `COc1ccc(-c2c(CO)c3cc(C#N)c(C#N)cc3n2OC)cc1`, the IC50 in assay [1] was 1.13 µM; in assay [2] it was above 100 µM. Further, in the assay listed under Homo sapiens, the Ratio IC50 was above 88.

Consider `COc1ccc(-c2c(C=O)c3cc(C#N)c(C#N)cc3n2OC)cc1`, for which the IC50 in assay [1] was 0.147 µM; in assay [2] it was above 100 µM. Moreover, the Ratio IC50 in the assay listed under Homo sapiens was above 680.

Regarding `COc1ccc(C(=O)Cc2cc3c(cc2[N+](=O)[O-])C(=O)N(Cc2ccccc2)C3=O)cc1`, the IC50 was 5.51 µM in assay [1] and above 100 µM in assay [2]. In the assay listed under Homo sapiens, the Ratio IC50 was above 18.

As for `COc1ccc(C(=O)Cc2cc(C(=O)O)c(C(=O)O)cc2[N+](=O)[O-])cc1`, the IC50 in assay [1] and in assay [2] was above 100 µM in each case.

Turning to `N#Cc1cc2cc(-c3cccs3)n(O)c2cc1C#N`, the IC50 in assay [1] is 11.1 µM; in assay [2], above 100 µM. Further, the Ratio IC50 in the assay listed under Homo sapiens was above 9.

For the molecule `O=C(Cc1cc2c(cc1[N+](=O)[O-])C(=O)NC2=O)c1ccccc1`, the IC50 was found to be 5.38 µM in assay [1] and 6.79 µM in assay [2]. Further, the Ratio IC50 in the assay filed under Homo sapiens came out at 1.3.

On to `COn1c(-c2ccc(C)cc2)cc2cc3c(cc21)C(=O)NC3=O`, for which the IC50 in assay [1] was determined as 1.75 µM; in assay [2], 0.581 µM. In addition, the Ratio IC50 in the assay filed under Homo sapiens is 0.33.

As for `O=C(Cc1cc(C(=O)O)c(C(=O)O)cc1[N+](=O)[O-])c1cccs1`, the IC50 in assay [1] and in assay [2] was above 100 µM throughout.

With `COn1c(-c2ccccc2)cc2cc3c(cc21)C(=O)N(C)C3=O`, the IC50 is 1.24 µM in assay [1] and above 100 µM in assay [2]. Also, the Ratio IC50 in the assay listed under Homo sapiens was above 81.

On to `O=C(O)c1cc2cc(-c3ccccc3)n(O)c2cc1C(=O)O`, for which the figures for the IC50 in assay [1] and in assay [2] were 23.3 µM and 56.2 µM, respectively. Besides, in the assay filed under Homo sapiens, the Ratio IC50 came to 2.4.

As for `Cc1ccc(-c2cc3cc(C(=O)O)c(C(=O)O)cc3n2O)cc1`, the IC50 in assay [1] and in assay [2] was above 100 µM throughout.

In the case of `COn1c(-c2ccccc2)c(Br)c2cc(C#N)c(C#N)cc21`, the IC50 in assay [1] and in assay [2] was above 100 µM throughout.

One may read the IC50 as the concentration that gives 50% inhibition.

Source of the values: ChEMBL document CHEMBL3797064, “An evaluation of synthetic indole derivatives as inhibitors of monoamine oxidase” (Bioorg Med Chem Lett, 2016).
